The values that follow come from US12338484B2, “FRET biosensor for detecting and reporting NAD+/NADH ratio changes” (Sartorius BioAnalytical Instruments, Inc., priority 2022, dated 2025).

Each structure is given as a SMILES string.

Assay type in all cases: biochemical
Set-up in all cases: key: Good response: Constructs with very clear and robust spectra separation; Poor response: those with noticeable but small spectra separation; No response: those having no spectra separation

Assay [1] has as its target Thermus aquaticus T-Rex FRET fusion, initial construct #12, Rex(A)-cpmEGFP(173/174)-Rex(B)-mKOk, SEQ ID NO: 172 (Thermus aquaticus, UniProt Q9X2V5, E116G/F189I/K117M/K204T/K47E/R46D/R58D/S30A/Y98W). In words: FRET response (emission spectra) of purified initial construct #12 in absence or presence of 40 uM NADH. Here is the method: (§1) 16 initial FRET constructs (See Table 3) were constructed using expression vector pET28c with a T7 promoter and lac operator and expressed in E. coli. Cells were collected and lysed using a commercially-available lysis buffer. Proteins of interest were isolated from the lysates using Ni-NTA magnetic beads. Eluted proteins were subjected to buffer exchange and final protein concentrating. To test performance of the initial FRET constructs, their emission spectra was recorded on a plate reader in absence or presence of 40 uM NADH. Resulting emission spectra with or without the ligand were normalized and overlaid for each construct. Constructs with very clear and robust spectra separation were labeled as having “good response”, those with noticeable but small spectra separation were labeled as having “poor response”, and finally those having no spectra separation were labeled as having “no response”.

Assay [2] concerns the target Thermus aquaticus T-Rex FRET fusion, initial construct #16, Rex(A)-mKOk-Rex(B)-mEGFP, SEQ ID NO: 176 (Thermus aquaticus, UniProt Q9X2V5, E116G/F189I/K117M/K204T/K47E/R46D/R58D/S30A/Y98W). In words: FRET response (emission spectra) of purified initial construct #16 in absence or presence of 40 uM NADH. Here is the method:
as §1

Assay [3] concerns the target T1, Thermus aquaticus T-Rex FRET fusion, initial construct #6, Rex(78-189)-cpmEGFP(173/174)-Rex(190-211)-Rex(78-211)-mKOk, SEQ ID NO: 166 (Thermus aquaticus, UniProt Q9X2V5, INS189[…]).
T1 construct: His-tag purified from E. coli
In words: FRET response (emission spectra) of purified initial construct #6 in absence or presence of 40 uM NADH. On the procedure: as §1

Assay [4] deals with Thermus aquaticus T-Rex FRET fusion, initial construct #10, Rex(A)-cpmEGFP(145/146)-Rex(B)-mKOk, SEQ ID NO: 170 (Thermus aquaticus, UniProt Q9X2V5, E116G/F189I/K117M/K204T/K47E/R46D/R58D/S30A/Y98W). As to the kind of experiment: FRET response (emission spectra) of purified initial construct #10 in absence or presence of 40 uM NADH. On the procedure:
as §1

Assay [5] deals with Thermus aquaticus T-Rex FRET fusion, initial construct #11, mKOk-Rex(A)-cpmEGFP(173/174)-Rex(B), SEQ ID NO: 171 (Thermus aquaticus, UniProt Q9X2V5, E116G/F189I/K117M/K204T/K47E/R46D/R58D/S30A/Y98W). As to the kind of experiment: FRET response (emission spectra) of purified initial construct #11 in absence or presence of 40 uM NADH. Here is the method:
as §1

Assay [6] deals with Thermus aquaticus T-Rex FRET fusion, initial construct #9, mKOk-Rex(A)-cpmEGFP(145/146)-Rex(B), SEQ ID NO: 169 (Thermus aquaticus, UniProt Q9X2V5, E116G/F189I/K117M/K204T/K47E/R46D/R58D/S30A/Y98W). In words: FRET response (emission spectra) of purified initial construct #9 in absence or presence of 40 uM NADH. Here is the method: as §1
The target of assay [7] is T2, Thermus aquaticus T-Rex FRET fusion, initial construct #3, mKOk-Rex(78-211)-Rex(78-189)-cpmEGFP(145/146)-Rex(190-211), SEQ ID NO: 163 (Thermus aquaticus, UniProt Q9X2V5, INS189[…]).
T2 construct: His-tag purified from E. coli
As to the kind of experiment: FRET response (emission spectra) of purified initial construct #3 in absence or presence of 40 uM NADH. Here is the method:
as §1

Assay [8] addresses T3, Thermus aquaticus T-Rex FRET fusion, initial construct #1, mKOk-Rex(78-189)-cpmEGFP(145/146)-Rex(190-211)-Rex(78-211), SEQ ID NO: 161 (Thermus aquaticus, UniProt Q9X2V5, INS189[…]).
T3 construct: His-tag purified from E. coli (pET28c)
As to the kind of experiment: FRET response (emission spectra) of purified initial construct #1 in absence or presence of 40 uM NADH. On the procedure:
as §1

For assay [9], the target named is Thermus aquaticus T-Rex FRET fusion, initial construct #13, mKOk-Rex(A)-mEGFP-Rex(B), SEQ ID NO: 173 (Thermus aquaticus, UniProt Q9X2V5, E116G/F189I/K117M/K204T/K47E/R46D/R58D/S30A/Y98W). In words: FRET response (emission spectra) of purified initial construct #13 in absence or presence of 40 uM NADH. Here is the method: as §1
In assay [10] the target is Thermus aquaticus T-Rex FRET fusion, initial construct #15, mEGFP-Rex(A)-mKOk-Rex(B), SEQ ID NO: 175 (Thermus aquaticus, UniProt Q9X2V5, E116G/F189I/K117M/K204T/K47E/R46D/R58D/S30A/Y98W). As to the kind of experiment: FRET response (emission spectra) of purified initial construct #15 in absence or presence of 40 uM NADH. Here is the method:
as §1

In the case of `NC(=O)C1=CN([C@@H]2O[C@H](COP(=O)(O)OP(=O)(O)OC[C@H]3O[C@@H](n4cnc5c(N)ncnc54)[C@H](O)[C@@H]3O)[C@@H](O)[C@H]2O)C=CC1` [NADH], the “FRET response to NADH” value in assay [1] is given as “Good response”; in assay [2], “Good response”; in [3], “No response”; in [4] it was “Good response”; in assay [5], “Poor response”; in assay [6] it was “No response”. The “FRET response to NADH” value in assay [7] is given as “No response”; in assay [8], “No response”; in [9], “Poor response”; in assay [10], “No response”.
